In patent US20090220997A1, “Stimulating G Protein-Coupled Receptors” (MAYO FOUNDATION FOR MEDICAL EDUCATION AND RESEARCH, priority 2005, published 2009):
Bridge positions count the residues as written; N and C are the ends. Square brackets hold non-standard residues; d marks the D form. Ends that are not written are not given here. Dap = NC[C@H](N)C(=O)O

Tests used:
calcitonin receptor = molecular target: T1, calcitonin receptor (Homo sapiens, UniProt P30988); assay: cAMP accumulation in cells expressing the calcitonin receptor; type: cell-based
T1 sequence (P30988 25-474): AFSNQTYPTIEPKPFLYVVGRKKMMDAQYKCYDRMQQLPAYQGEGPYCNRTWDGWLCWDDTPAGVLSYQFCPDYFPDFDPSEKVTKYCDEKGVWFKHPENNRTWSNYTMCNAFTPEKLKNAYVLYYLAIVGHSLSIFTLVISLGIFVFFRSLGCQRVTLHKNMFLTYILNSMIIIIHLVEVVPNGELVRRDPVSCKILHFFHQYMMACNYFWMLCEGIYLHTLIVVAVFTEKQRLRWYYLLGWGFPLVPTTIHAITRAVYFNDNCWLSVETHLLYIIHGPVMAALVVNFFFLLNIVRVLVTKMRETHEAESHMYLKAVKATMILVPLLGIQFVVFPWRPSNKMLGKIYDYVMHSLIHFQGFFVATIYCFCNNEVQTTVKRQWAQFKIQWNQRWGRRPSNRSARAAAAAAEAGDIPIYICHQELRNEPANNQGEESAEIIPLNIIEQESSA
Description: (§1) FIG. 4 contains a series of graphs plotting cAMP accumulation versus concentration of amino-terminal polypeptides from the calcitonin (residues 73-80; SEQ ID NO:6) and VPAC1 (residues 51-71; SEQ ID NO:4) receptors that were used to stimulate cells expressing Class B receptors.
(§2) Polypeptides representing the analogous region of the amino terminus of the Class B G protein-coupled calcitonin and VPAC1 receptors (FIG. 1) were also synthesized. […] The agonist activity of these endogenous polypeptides was not limited to the corresponding receptors. The polypeptides were also active at other structurally-related family members (FIG. 4).

Class B receptors = assay: cAMP accumulation in cells expressing Class B receptors; type: cell-based; settings: receptors other than the corresponding receptor
Description: as §1
(§3) FIG. 6 contains a series of graphs plotting cAMP accumulation versus concentration of the WDN tripeptide or amino-terminal polypeptides from the VPAC1 receptor (residues 51-71; SEQ ID NO:4), the calcitonin receptor (residues 73-80; SEQ ID NO:6), and the GLP1R (residues 63-70; SEQ ID NO:22) that were used to stimulate cells expressing Class B receptors as indicated.
as §2
(§4) Additional experiments were performed and curves were regenerated (FIG. 6), as described herein and as described elsewhere (Dong et al., Mol. Pharmacol., 70(1):206-13 (2006)). […] Each polypeptide used to generate the data presented in FIG. 6 was a cyclic polypeptide, except for the VPAC1(51-71) polypeptide. […]

secretin receptor = molecular target: T2, secretin receptor (Rattus norvegicus, UniProt P23811); assay: cAMP accumulation in CHO cells expressing the secretin receptor (CHO-SecR); type: cell-based; settings: for agonist activity (stimulation of cAMP accumulation): 30 min at 37° C.; for potency (cAMP accumulation), relative comparison: secretin receptor (SecR)
T2 construct: expressed in transfected cells; host or cells: CHO (CHO-SecR)
T2 sequence (P23811 26-449): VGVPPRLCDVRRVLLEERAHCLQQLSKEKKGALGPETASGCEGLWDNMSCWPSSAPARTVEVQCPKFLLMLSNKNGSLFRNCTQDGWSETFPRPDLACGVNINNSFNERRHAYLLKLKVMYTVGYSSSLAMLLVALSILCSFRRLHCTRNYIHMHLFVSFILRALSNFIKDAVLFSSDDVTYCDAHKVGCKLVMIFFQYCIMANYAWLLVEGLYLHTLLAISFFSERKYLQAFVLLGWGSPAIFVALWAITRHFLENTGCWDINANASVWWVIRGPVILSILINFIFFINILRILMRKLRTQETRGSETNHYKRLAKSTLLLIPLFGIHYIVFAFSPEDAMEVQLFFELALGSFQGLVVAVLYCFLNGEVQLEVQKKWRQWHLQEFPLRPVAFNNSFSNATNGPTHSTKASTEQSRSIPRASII
Description: (§5) FIG. 2 contains a series of graphs plotting accumulation of cAMP versus concentration of polypeptide used to stimulate cells. Presented in panel A are curves of cAMP accumulation in Chinese hamster ovary cells expressing the secretin receptor (CHO-SecR), and in the cells of the parental CHO cell line not expressing the secretin receptor, in response to increasing concentrations of secretin or a synthetic polypeptide (SEQ ID NO:1) corresponding to the region of the amino terminus of the secretin receptor between the first and third conserved cysteine residues, Cys^24 and Cys^53 (corresponding to residues 46 to 75 of GenBank Accession Number AAH81781). Presented in panel B are curves of cAMP accumulation in CHO-SecR cells in response to increasing concentrations of the indicated pentapeptide (SEQ ID NO:3), tripeptides, or dipeptides. Presented in panel C are curves of cAMP accumulation in CHO-SecR cells in response to increasing concentrations of a linear tripeptide, cyclic tripeptides, or a myristolated cyclic tripeptide. Adherent cells that were 75 percent confluent were stimulated with the polypeptide in Krebs-Ringers-HEPES medium for 30 min at 37° C. Cellular cAMP was quantified as previously reported (Holtmann et al., J. Biol. Chem. 270, 14394 (1995)). Values represent means±S.E.M. of data from a minimum of three independent assays performed in duplicate. Myr indicates myristoylated cyclic tripeptide.
It was determined whether a synthetic polypeptide corresponding to the region of the secretin receptor amino terminus between residues 24 and 53 (FIG. 1), which shares no homology with any part of the natural agonist polypeptide, could act as an endogenous agonist ligand. […] The cAMP response was dependent on the concentration of the polypeptide. […] The polypeptide had no effect on cAMP levels in the parental CHO cell line, even at concentrations as high as 100 μM (FIG. 2A).

human GLP1R = human GLP1R (Homo sapiens, UniProt P43220); assay: cAMP accumulation in cells expressing the GLP1R; type: cell-based
Sequence of human GLP1R (P43220 24-463 L260F/A316G): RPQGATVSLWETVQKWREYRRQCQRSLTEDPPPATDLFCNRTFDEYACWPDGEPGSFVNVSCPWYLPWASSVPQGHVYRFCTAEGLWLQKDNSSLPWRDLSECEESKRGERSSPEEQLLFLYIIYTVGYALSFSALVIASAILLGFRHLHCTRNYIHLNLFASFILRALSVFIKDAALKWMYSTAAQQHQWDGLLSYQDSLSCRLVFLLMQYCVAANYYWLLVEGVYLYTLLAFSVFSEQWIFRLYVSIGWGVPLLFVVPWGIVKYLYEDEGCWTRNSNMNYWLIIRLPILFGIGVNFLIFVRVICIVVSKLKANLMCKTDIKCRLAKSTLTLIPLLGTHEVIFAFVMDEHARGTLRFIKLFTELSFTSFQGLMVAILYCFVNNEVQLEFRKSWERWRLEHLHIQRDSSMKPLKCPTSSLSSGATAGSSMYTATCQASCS
Method: as §3
Additional experiments were performed and curves were regenerated (FIG. 6), as described herein and as described elsewhere (Dong et al., Mol. Pharmacol., 70(1):206-13 (2006)). […] Each polypeptide used to generate the data presented in FIG. 6 was a cyclic polypeptide, except for the VPAC1(51-71) polypeptide. Linear versions of each polypeptide were also tested and found to behave in a similar manner as the corresponding cyclic polypeptides, with similar potencies and efficacies.

VPAC1 receptor = molecular target: T3, VPAC1 receptor (Rattus norvegicus, UniProt P30083); assay: cAMP accumulation in cells expressing the VPAC1 receptor; type: cell-based
T3 sequence (P30083 31-459): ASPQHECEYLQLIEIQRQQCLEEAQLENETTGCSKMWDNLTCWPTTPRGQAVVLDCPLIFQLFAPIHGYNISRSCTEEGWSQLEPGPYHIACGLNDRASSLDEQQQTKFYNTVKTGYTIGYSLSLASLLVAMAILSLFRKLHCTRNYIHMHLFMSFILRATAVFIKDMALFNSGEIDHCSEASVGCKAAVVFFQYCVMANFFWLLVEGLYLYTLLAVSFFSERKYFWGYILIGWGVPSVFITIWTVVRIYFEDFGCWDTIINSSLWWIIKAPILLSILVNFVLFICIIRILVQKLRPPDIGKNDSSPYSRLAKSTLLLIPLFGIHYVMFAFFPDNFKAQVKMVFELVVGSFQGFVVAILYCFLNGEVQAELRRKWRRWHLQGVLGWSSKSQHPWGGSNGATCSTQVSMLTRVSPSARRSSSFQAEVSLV
Description: as §1, §3, §2, §4

[1] = tested on: Class A G protein-coupled cholecystokinin receptor; assay: cAMP levels in CHO cell lines expressing cholecystokinin receptor; type: cell-based; settings: CHO cell lines expressing high concentrations of cholecystokinin receptor
[2] = tested on: parental CHO cell line not expressing the secretin receptor; assay: cAMP accumulation in parental CHO cell line; type: cell-based, Chinese hamster; settings: concentrations as high as 100 μM
Description: as §5, with “Presented in panel C are curves of cAMP accumulation in CHO-SecR cells in response to increasing concentrations of a linear tripeptide, cyclic tripeptides, or a myristolated cyclic tripeptide. Adherent cells that were 75 percent confluent were stimulated with the polypeptide in Krebs-Ringers-HEPES medium for 30 min at 37° C.” left out, “Values represent means±S.E.M. of data from a minimum of three independent assays performed in duplicate. Myr indicates myristoylated cyclic tripeptide.” left out
It was determined whether a synthetic polypeptide corresponding to the region of the secretin receptor amino terminus between residues 24 and 53 (FIG. 1), which shares no homology with any part of the natural agonist polypeptide, could act as an endogenous agonist ligand. […]

CTR(73-80): polypeptide corresponding to amino acids 73 to 80 of the human calcitonin receptor ([Dap]NRTWDGWLD; not fully specified (bridges); listed as Homo sapiens)
agonist activity (cAMP accumulation) (calcitonin receptor): low potency agonist activity
activity at other structurally-related family members (Class B receptors): also active

GLP1R(63-70): polypeptide corresponding to amino acid residues 63 to 70 of the human GLP1R (NRTFDEYA; listed as Homo sapiens)
agonist activity (stimulation of cAMP accumulation) (secretin receptor; CHO-SecR cells): active as an agonist
agonist activity (cAMP accumulation) (human GLP1R): active as an agonist
agonist activity (cAMP accumulation) (VPAC1 receptor): active as an agonist

SecR(24-53): polypeptide corresponding to amino acids 46 to 75 of the rat secretin receptor (SEQ ID NO:1) ([Dap]CLQQLSKEKKGALGPETASGSEGLWDNMSCD; cysteine pairing not given here)
agonist activity (stimulation of cAMP accumulation) (secretin receptor; CHO-SecR cells): weakly potent agonist
effect on cAMP levels [1]: did not affect cAMP levels
effect on cAMP levels [2]: no effect

VPAC1(51-71): polypeptide corresponding to amino acids 51 to 71 of the rat VPAC1 receptor ([Dap]LEEAQLENETTGSSKMWDNLTD; not fully specified (bridges))
agonist activity (cAMP accumulation) (human GLP1R): active as agonists
activity at other structurally-related family members (Class B receptors): also active
agonist activity (cAMP accumulation) (VPAC1 receptor): low potency agonist activity

cyclic WDN (tryptophan-aspartate-asparagine) tripeptide
efficacy (cAMP accumulation) (secretin receptor; CHO-SecR cells): maintained full efficacy
potency (cAMP accumulation), relative comparison (secretin receptor): enhanced relative to that of the linear polypeptide
agonist activity (cAMP accumulation) (human GLP1R): active as agonists

leucine-tryptophan-aspartate-asparagine-methionine [LWDNM]
agonist activity (stimulation of cAMP accumulation) (secretin receptor; CHO-SecR cells): Agonist activity was maintained

myristoylated cyclic tripeptide: cyclic WDN polypeptide modified by fatty acid acylation (myristoyl group) ([Dap]WDND; lactam N-C; also: myristoyl group, site not given here)
potency (cAMP accumulation), relative comparison (secretin receptor): further enhanced

tryptophan-aspartate-asparagine [linear tripeptide]
agonist activity (stimulation of cAMP accumulation) (secretin receptor; CHO-SecR cells): stimulated cAMP accumulation
